# Measured values published in paper PMC6152393, “Rational Design of Cyclic Antimicrobial Peptides Based on BPC194 and BPC198” (Molecules : A Journal of Synthetic Chemistry and Natural …, 2017).
# Peptide text beside a SMILES is read from it.
# What was measured:
# Type in all cases: cell-based
# [1] = tested on: Pseudomonas syringae pv. syringae EPS94; conditions: 48 h
# Protocol: (§1) The antibacterial activity of the designed cyclic peptides was assayed against P. syringae pv. syringae, X. axonopodis pv. vesicatoria, and E. amylovora at 3.1, 6.2, 12.5, 25, and 50 μM. Peptides BPC194 and BPC198 were also included in these assays for comparison purposes.
# (§2) The following plant pathogenic bacterial strains were used: Erwinia amylovora PMV6076 (Institut National de la Recherche Agronomique, Angers, France); Pseudomonas syringae pv. syringae EPS94 (Institut de Tecnologia Agroalimentària, Universitat de Girona, Spain); and Xanthomonas axonopodis pv. vesicatoria 2133-2 (Instituto Valenciano de Investigaciones Agrarias, Valencia, Spain). All bacteria were stored in Luria Bertani (LB) broth supplemented with glycerol (20%) and maintained at –80 °C. E. amylovora and P. syringae pv. syringae were scrapped from LB agar after growing for 24 h and X. axonopodis pv. vesicatoria after growing for 48 h at 25 °C. The cell material was suspended in sterile water to obtain a suspension of 10^8 CFU mL^−1.
# (§3) Lyophilized peptides were solubilized in sterile Milli-Q water to a final concentration of 1000 μM and sterilized through a 0.22-μm pore filter. For MIC assessment, dilutions of the synthetic peptides were made to obtain a final concentration of 500, 250, 125, 62.5, 31.2, and 15.6 μM. Twenty microlitres of each dilution were mixed in a microtiter plate well with 20 μL of the corresponding suspension of the bacterial indicator and 160 μL of Trypticase Soy Broth (TSB) (BioMèrieux, Craponne, France) to a total volume of 200 μL. Three replicates for each strain, peptide, and concentration were used. Positive controls contained water instead of peptide and negative controls contained peptides without bacterial suspension. Bacterial growth was automatically determined by an optical density measurement at 600 nm (Bioscreen C, Labsystem, Helsinki, Finland). Microplates were incubated at 25 °C with 20 s shaking before hourly absorbance measurements for 48 h. Each experiment was repeated twice. The MIC was taken as the lowest peptide concentration with no growth at the end of the experiment. The inhibition of growth (I) was calculated as a percentage of the positive control using the equation: I = 100 × [(AC − AS)/AC], where AC is the area under the curve of the control, and AS is the area under the curve of a given peptide concentration.
# [2] = tested on: Xanthomonas axonopodis pv. vesicatoria 2133-2; conditions: Trypticase Soy Broth, 25 °C, 48 h, OD 600 nm (Bioscreen C), peptides at 3.1, 6.2, 12.5, 25, 50 μM, three replicates, experiment repeated twice, MIC = lowest concentration with no growth
# Protocol: as §1, §2, §3
# [3] = tested on: Erwinia amylovora PMV6076; test: Antibacterial activity (MIC), growth inhibition in microtiter plates; conditions: Trypticase Soy Broth, 25 °C, 48 h, OD 600 nm (Bioscreen C), peptides at 3.1, 6.2, 12.5, 25, 50 μM, three replicates, experiment repeated twice, MIC = lowest concentration with no growth
# Protocol: as §1, §2, §3
SMILES,"MIC Intervals, Pss [1] [µM]","MIC Intervals, Xav [2] [µM]","MIC Intervals, Ea [3] [µM]"
"CC(C)C[C@@H]1NC(=O)[C@H](CCCCN)NC(=O)[C@H](CCCCN)NC(=O)[C@H](CCC(N)=O)NC(=O)[C@H](CC(C)C)NC(=O)[C@H](CCCCN)NC(=O)[C@H](CCCCN)NC(=O)[C@H](Cc2ccccc2)NC(=O)[C@H](CCCCN)NC(=O)[C@H](CCCCN)NC1=O [BPC194, c(KKLKKFKKLQ)] (cyclo(FKKLQKKLKK))",3.1 to 6.2,3.1 to 6.2,6.2 to 12.5
"CC(C)C[C@@H]1NC(=O)[C@H](CCCCN)NC(=O)[C@H](CCCCN)NC(=O)[C@H](Cc2ccccc2)NC(=O)[C@H](CCCCN)NC(=O)[C@H](CCCCN)NC(=O)[C@H](CCCCN)NC(=O)[C@H](CC(C)C)NC(=O)[C@H](CCCCN)NC(=O)[C@H](CCC(N)=O)NC1=O [BPC198, c(KLKKKFKKLQ)] (cyclo(FKKLQKLKKK))",3.1 to 6.2,3.1 to 6.2,12.5 to 25
CC(C)C[C@@H]1NC(=O)[C@H](CCCCN)NC(=O)[C@H](CCCCN)NC(=O)[C@H](CCCCN)NC(=O)[C@H](Cc2ccccc2)NC(=O)[C@H](CC(C)C)NC(=O)[C@H](CCCCN)NC(=O)[C@H](CCCCN)NC(=O)[C@H](CCCCN)NC(=O)[C@H](CCC(N)=O)NC1=O [BPC480] (cyclo(FKKKLQKKKL)),12.5 to 25,12.5 to 25,>50
CC(C)C[C@@H]1NC(=O)[C@H](CCCCN)NC(=O)[C@H](CCC(N)=O)NC(=O)[C@H](CC(C)C)NC(=O)[C@H](CCCCN)NC(=O)[C@H](Cc2ccccc2)NC(=O)[C@H](CCCCN)NC(=O)[C@H](CCCCN)NC(=O)[C@H](CCCCN)NC(=O)[C@H](CCCCN)NC1=O [BPC482] (cyclo(FKLQKLKKKK)),–,6.2 to 12.5,>50
CC(C)C[C@@H]1NC(=O)[C@H](CCC(N)=O)NC(=O)[C@H](CC(C)C)NC(=O)[C@H](Cc2ccccc2)NC(=O)[C@H](CCCCN)NC(=O)[C@H](CCCCN)NC(=O)[C@H](CCCCN)NC(=O)[C@H](CCCCN)NC(=O)[C@H](CCCCN)NC(=O)[C@H](CCCCN)NC1=O [BPC484] (cyclo(FLQLKKKKKK)),12.5 to 25,25 to 50,>50
CC(C)C[C@@H]1NC(=O)[C@H](CCC(N)=O)NC(=O)[C@H](Cc2ccccc2)NC(=O)[C@H](CC(C)C)NC(=O)[C@H](CCCCN)NC(=O)[C@H](CCCCN)NC(=O)[C@H](CCCCN)NC(=O)[C@H](CCCCN)NC(=O)[C@H](CCCCN)NC(=O)[C@H](CCCCN)NC1=O [BPC486] (cyclo(FQLKKKKKKL)),12.5 to 25,–,>50
CC(C)C[C@@H]1NC(=O)[C@H](CCCCN)NC(=O)[C@H](CCC(N)=O)NC(=O)[C@H](Cc2ccccc2)NC(=O)[C@H](CCCCN)NC(=O)[C@H](CC(C)C)NC(=O)[C@H](CCCCN)NC(=O)[C@H](CCCCN)NC(=O)[C@H](CCCCN)NC(=O)[C@H](CCCCN)NC1=O [BPC488] (cyclo(FQKLKKKKLK)),–,6.2 to 12.5,>50
CC(C)C[C@@H]1NC(=O)[C@H](CCCCN)NC(=O)[C@H](CCCCN)NC(=O)[C@H](CCC(N)=O)NC(=O)[C@H](Cc2ccccc2)NC(=O)[C@H](CCCCN)NC(=O)[C@H](CCCCN)NC(=O)[C@H](CC(C)C)NC(=O)[C@H](CCCCN)NC(=O)[C@H](CCCCN)NC1=O [BPC490] (cyclo(FQKKLKKLKK)),–,3.1 to 6.2,12.5 to 25
CC(C)C[C@@H]1NC(=O)[C@H](CCCCN)NC(=O)[C@H](CCCCN)NC(=O)[C@H](CCCCN)NC(=O)[C@H](CCC(N)=O)NC(=O)[C@H](Cc2ccccc2)NC(=O)[C@H](CCCCN)NC(=O)[C@H](CCCCN)NC(=O)[C@H](CCCCN)NC(=O)[C@H](CC(C)C)NC1=O [BPC492] (cyclo(FQKKKLLKKK)),12.5 to 25,12.5 to 25,>50
CC(C)C[C@@H]1NC(=O)[C@H](CCC(N)=O)NC(=O)[C@H](CCCCN)NC(=O)[C@H](CCCCN)NC(=O)[C@H](CC(C)C)NC(=O)[C@H](Cc2ccccc2)NC(=O)[C@H](CCCCN)NC(=O)[C@H](CCCCN)NC(=O)[C@H](CCCCN)NC(=O)[C@H](CCCCN)NC1=O [BPC494] (cyclo(FLKKQLKKKK)),6.2 to 12.5,6.2 to 12.5,>50
CC(C)C[C@@H]1NC(=O)[C@H](CCC(N)=O)NC(=O)[C@H](CC(C)C)NC(=O)[C@H](CCCCN)NC(=O)[C@H](CCCCN)NC(=O)[C@H](CCCCN)NC(=O)[C@H](CCCCN)NC(=O)[C@H](Cc2ccccc2)NC(=O)[C@H](CCCCN)NC(=O)[C@H](CCCCN)NC1=O [BPC496] (cyclo(FKKKKLQLKK)),6.2 to 12.5,6.2 to 12.5,>50
CC(C)C[C@@H]1NC(=O)[C@H](CCCCN)NC(=O)[C@H](CCC(N)=O)NC(=O)[C@H](CCCCN)NC(=O)[C@H](CCCCN)NC(=O)[C@H](CC(C)C)NC(=O)[C@H](Cc2ccccc2)NC(=O)[C@H](CCCCN)NC(=O)[C@H](CCCCN)NC(=O)[C@H](CCCCN)NC1=O [BPC914] (cyclo(FLKKQKLKKK)),12.5 to 25,12.5 to 25,>50
CC(C)C[C@@H]1NC(=O)[C@H](CCCCN)NC(=O)[C@H](CCCCN)NC(=O)[C@H](CCCCN)NC(=O)[C@H](CCCCN)NC(=O)[C@H](Cc2ccccc2)NC(=O)[C@H](CCCCN)NC(=O)[C@H](CC(C)C)NC(=O)[C@H](CCCCN)NC(=O)[C@H](CCC(N)=O)NC1=O [BPC916] (cyclo(FKKKKLQKLK)),6.2 to 12.5,12.5 to 25,>50
CC(C)C[C@@H]1NC(=O)[C@H](CCCCN)NC(=O)[C@H](CCCCN)NC(=O)[C@H](CCCCN)NC(=O)[C@H](Cc2ccccc2)NC(=O)[C@H](CCCCN)NC(=O)[C@H](CCC(N)=O)NC(=O)[C@H](CC(C)C)NC(=O)[C@H](CCCCN)NC(=O)[C@H](CCCCN)NC1=O [BPC918] (cyclo(FKKKLKKLQK)),–,1.6 to 3.1,12.5 to 25
CC(C)C[C@@H]1NC(=O)[C@H](CCCCN)NC(=O)[C@H](CCCCN)NC(=O)[C@H](CCCCN)NC(=O)[C@H](Cc2ccccc2)NC(=O)[C@H](CCCCN)NC(=O)[C@H](CCC(N)=O)NC(=O)[C@H](CCCCN)NC(=O)[C@H](CCCCN)NC(=O)[C@H](CC(C)C)NC1=O [BPC920] (cyclo(FKKKLLKKQK)),12.5 to 25,25 to 50,>50
CC(C)C[C@@H]1NC(=O)[C@H](CCCCN)NC(=O)[C@H](CCCCN)NC(=O)[C@H](CCCCN)NC(=O)[C@H](CCCCN)NC(=O)[C@H](CC(C)C)NC(=O)[C@H](CCCCN)NC(=O)[C@H](Cc2ccccc2)NC(=O)[C@H](CCCCN)NC(=O)[C@H](CCC(N)=O)NC1=O [BPC922] (cyclo(FKLKKKKLQK)),12.5 to 25,12.5 to 25,>50
CC(C)C[C@@H]1NC(=O)[C@H](CCCCN)NC(=O)[C@H](CCCCN)NC(=O)[C@H](CCCCN)NC(=O)[C@H](CC(C)C)NC(=O)[C@H](CCCCN)NC(=O)[C@H](CCC(N)=O)NC(=O)[C@H](Cc2ccccc2)NC(=O)[C@H](CCCCN)NC(=O)[C@H](CCCCN)NC1=O [BPC924] (cyclo(FQKLKKKLKK)),–,1.6 to 3.1,12.5 to 25
